# Where a name gives a salt, the structure may show the parent alone.
# Tested on: SMN protein
# Assay: cellular SMN ELISA (SMN protein elevation)
# Format: cell-based
# Conditions: myoblast cell line derived from SMNdelta7 mouse model; 24 hours compound treatment; concentration range 100 pM-10 uM
# Procedure: A cellular SMN ELISA was used to measure the effects of low molecular weight compounds on SMN protein elevation. Cells from a myoblast cell line derived from the SMNdelta7 mouse model (kind gift from Steve Burden, NYU) were seeded into a 384-well plate at a density of 3000 cells/well and treated with compounds for 24 hours. ELISA capture plates were prepared by coating 384-well plates (Immulon 4HBX) with 0.5 ug/mL of anti-SMN mAb (BD Science, Catalog number 610647) at 4° C. overnight. The plates were washed 5 times with 110 uL of PBS-Tween (0.05% Tween-20, PBST), blocked with 100 uL of 1% BSA in PBST for 2 hours and washed (5 times) with 100 uL of PBST. After 24 hours of compound treatment cells were lysed in a modified RIPA-buffer, on ice for 1 hour. 20 uL of lysate and 20 uL of 1% BSA were then added to the ELISA capture plates and incubated at 4° C. overnight. Plates were washed (5 times) with PBST and then incubated with 1:100 dilution of primary rabbit anti-SMN polyclonal antibody (Santa cruz, Catalog number SC-15320) at room temperature for 1 hour and subsequently washed (5 times) with 110 uL of PBST. This was followed by addition of 1:100 Goat anti-Rabbit IgG-HRP linked (Cell Signaling, Catalog number 7074) secondary antibody for 1 hour. Plates were then washed with PBST and incubated with 40 uL TMB substrate (Cell Signaling, Catalog number 7004L) at room temperature for 1-10 minutes with shaking. The reaction was stopped by addition of 40 uL of stop solution (Cell signaling, Catalog number 7002L) and absorption was measured at 450 nm. Data was reported as fold activation over DMSO control and EC50. ELISA assay condition: compound concentration range 100 pM-10 uM.
SMILES,EC50 [nM],SMN Activity Fold (fold activation over DMSO control) [fold]
"COC(=O)c1ccc(-c2nnc(N(C)C3CC(C)(C)NC(C)(C)C3)s2)c(F)c1 [Example 35, methyl 3-fluoro-4-(5-(methyl(2,2,6,6-tetramethyl-piperidin-4-yl)amino)-1,3,4-thiadiazol-2-yl) benzoate]",864,2.81
"CNc1ccn(-c2ccc(-c3nnc(N(C)C4CC(C)(C)NC(C)(C)C4)s3)c(OC)c2)n1 [Example 36, 5-(2-methoxy-4-(3-(methylamino)-1H-pyrazol-1-yl)phenyl)-N-methyl-N-(2,2,6,6-tetramethyl-piperidin-4-yl)-1,3,4-thiadiazol-2-amine]",163,2.15
"COc1cc2nc(C#N)ccc2cc1-c1nnc(N(C)C2CC(C)(C)NC(C)(C)C2)s1 [Example 37, 7-methoxy-6-(5-(methyl(2,2,6,6-tetramethyl-piperidin-4-yl)amino)-1,3,4-thiadiazol-2-yl) quinoline-2-carbonitrile]",78,2.19
"COc1cc(-c2ccn(C)c(=O)c2)ccc1-c1nnc(OC2CC(C)(C)NC(C)(C)C2)s1 [Example 38, 4-(3-methoxy-4-(5-((2,2,6,6-tetramethyl-piperidin-4-yl)oxy)-1,3,4-thiadiazol-2-yl)phenyl)-1-methylpyridin-2(1H)-one]",1520,2.12
"CN(c1nnc(-c2ccc(-c3ccn(C)c(=O)c3)cc2Cl)s1)C1CC(C)(C)NC(C)(C)C1 [Example 39, 4-(3-chloro-4-(5-(methyl(2,2,6,6-tetramethyl-piperidin-4-yl)amino)-1,3,4-thiadiazol-2-yl)phenyl)-1-methylpyridin-2(1H)-one]",50,2.31
"CN(c1nnc(-c2ccc(-c3cn[nH]c3)cc2Cl)s1)C1CC(C)(C)NC(C)(C)C1 [Example 40, 5-(2-chloro-4-(1H-pyrazol-4-yl)phenyl)-N-methyl-N-(2,2,6,6-tetramethylpiperidin-4-yl)-1,3,4-thiadiazol-2-amine]",34,2.55
"CN(c1nnc(-c2ccc(-c3cnn4c3CCCC4)cc2Cl)s1)C1CC(C)(C)NC(C)(C)C1 [Example 41, 5-(2-chloro-4-(4,5,6,7-tetrahydropyrazolo[1,5-a]pyridin-3-yl)phenyl)-N-methyl-N-(2,2,6,6-tetramethylpiperidin-4-yl)-1,3,4-thiadiazol-2-amine]",507,2.44
"CN(c1nnc(-c2ccc(-c3cnn(C)c3)cn2)s1)C1CC(C)(C)NC(C)(C)C1 [Example 42, N-methyl-5-(5-(1-methyl-1H-pyrazol-4-yl)pyridin-2-yl)-N-(2,2,6,6-tetramethylpiperidin-4-yl)-1,3,4-thiadiazol-2-amine. Hydrochloride salt]",675,2.32
"Cn1cc(-c2ccc(-c3nnc(OC4CC(C)(C)NC(C)(C)C4)s3)c(Cl)c2)cn1 [Example 43, 2-(2-chloro-4-(1-methyl-1H-pyrazol-4-yl)phenyl)-5-((2,2,6,6-tetramethylpiperidin-4-yl)oxy)-1,3,4-thiadiazole]",446,2.28
"COc1ccc(-c2ccc(-c3nnc(N(C)C4CC(C)(C)NC(C)(C)C4)s3)c(Cl)c2)cn1 [Example 44, 5-(2-chloro-4-(6-methoxypyridin-3-yl)phenyl)-N-methyl-N-(2,2,6,6-tetramethylpiperidin-4-yl)-1,3,4-thiadiazol-2-amine]",4920,2.26
"CN(c1nnc(-c2ccc(-c3ccc(N)nc3)cc2F)s1)C1CC(C)(C)NC(C)(C)C1 [Example 45, 5-(4-(6-aminopyridin-3-yl)-2-fluorophenyl)-N-methyl-N-(2,2,6,6-tetramethylpiperidin-4-yl)-1,3,4-thiadiazol-2-amine]",163,2.26
"Cc1cc(-c2ccc(-c3nnc(N(C)C4CC(C)(C)NC(C)(C)C4)s3)c(F)c2)[nH]n1 [Example 46, 5-(2-fluoro-4-(3-methyl-1H-pyrazol-5-yl)phenyl)-N-methyl-N-(2,2,6,6-tetramethylpiperidin-4-yl)-1,3,4-thiadiazol-2-amine]",122,2.32
"CN(c1nnc(-c2ccc(-c3ccn[nH]3)cc2F)s1)C1CC(C)(C)NC(C)(C)C1 [Example 47, 5-(2-fluoro-4-(1H-pyrazol-5-yl)phenyl)-N-methyl-N-(2,2,6,6-tetramethylpiperidin-4-yl)-1,3,4-thiadiazol-2-amine]",152,2.29
"CN(c1nnc(-c2ccc(-c3cn[nH]c3)c(F)c2F)s1)C1CC(C)(C)NC(C)(C)C1 [Example 48, 5-(2,3-difluoro-4-(1H-pyrazol-4-yl)phenyl)-N-methyl-N-(2,2,6,6-tetramethylpiperidin-4-yl)-1,3,4-thiadiazol-2-amine]",33,3.04
"CN(c1nnc(-c2ccc(-c3ccn[nH]3)c(F)c2F)s1)C1CC(C)(C)NC(C)(C)C1 [Example 49, 5-(2,3-difluoro-4-(1H-pyrazol-5-yl)phenyl)-N-methyl-N-(2,2,6,6-tetramethylpiperidin-4-yl)-1,3,4-thiadiazol-2-amine]",81,2.42
"CN(c1nnc(-c2cc(F)c(-c3cn[nH]c3)cc2F)s1)C1CC(C)(C)NC(C)(C)C1 [Example 50, 5-(2,5-difluoro-4-(1H-pyrazol-4-yl)phenyl)-N-methyl-N-(2,2,6,6-tetramethylpiperidin-4-yl)-1,3,4-thiadiazol-2-amine]",20,3.07
"CN(c1nnc(-c2cc(F)c(-c3ccn[nH]3)cc2F)s1)C1CC(C)(C)NC(C)(C)C1 [Example 51, 5-(2,5-difluoro-4-(1H-pyrazol-5-yl)phenyl)-N-methyl-N-(2,2,6,6-tetramethylpiperidin-4-yl)-1,3,4-thiadiazol-2-amine]",85,2.86
"CN(c1nnc(-c2c(F)cc(-c3cn[nH]c3)cc2F)s1)C1CC(C)(C)NC(C)(C)C1 [Example 52, 5-(2,6-difluoro-4-(1H-pyrazol-4-yl)phenyl)-N-methyl-N-(2,2,6,6-tetramethylpiperidin-4-yl)-1,3,4-thiadiazol-2-amine]",61,3.30
"Fc1cc(-c2nnc(N3C[C@H]4CNC[C@H]4C3)s2)c(F)cc1-c1cn[nH]c1 [Example 53, 2-(2,5-difluoro-4-(1H-pyrazol-4-yl)phenyl)-5-((3aR,6aS)-hexahydropyrrolo[3,4-c]pyrrol-2(1H)-yl)-1,3,4-thiadiazole]",70,2.56
"CN(c1nnc(-c2cc(F)c(-c3cn[nH]c3)cc2Cl)s1)C1CC(C)(C)NC(C)(C)C1 [Example 54, 5-(2-chloro-5-fluoro-4-(1H-pyrazol-4-yl)phenyl)-N-methyl-N-(2,2,6,6-tetramethylpiperidin-4-yl)-1,3,4-thiadiazol-2-amine]",47,3.16
"CN(c1nnc(-c2ncc(-c3cn[nH]c3)cc2F)s1)C1CC(C)(C)NC(C)(C)C1 [Example 55, 5-(3-fluoro-5-(1H-pyrazol-4-yl)pyridin-2-yl)-N-methyl-N-(2,2,6,6-tetramethylpiperidin-4-yl)-1,3,4-thiadiazol-2-amine]",1010,2.75
"CN(c1nnc(-c2ccc(-c3ccnc(N)n3)cc2Cl)s1)C1CC(C)(C)NC(C)(C)C1 [Example 56, 5-(4-(2-aminopyrimidin-4-yl)-2-chlorophenyl)-N-methyl-N-(2,2,6,6-tetramethylpiperidin-4-yl)-1,3,4-thiadiazol-2-amine]",41,2.47
"CN(c1nnc(-c2cc(-c3ccnc(N)n3)ccc2Cl)s1)C1CC(C)(C)NC(C)(C)C1 [Example 57, 5-(5-(2-aminopyrimidin-4-yl)-2-chlorophenyl)-N-methyl-N-(2,2,6,6-tetramethylpiperidin-4-yl)-1,3,4-thiadiazol-2-amine]",94,2.55
"Cc1nc(C)c(-c2cc(F)c(-c3nnc(N(C)C4CC(C)(C)NC(C)(C)C4)s3)cc2F)s1 [Example 58, 5-(4-(2,4-dimethylthiazol-5-yl)-2,5-difluorophenyl)-N-methyl-N-(2,2,6,6-tetramethylpiperidin-4-yl)-1,3,4-thiadiazol-2-amine]",386,2.41

# Source: patent US9040712B2, “Thiadiazole analogs thereof and methods for treating SMN-deficiency-related-conditions” (NOVARTIS AG, priority 2013, dated 2015)
